# According to patent publication US20090104122A1, “DETECTION OF MEMBRANE ANDROGEN RECEPTOR (mAR) AGENTS” (priority 2006, published 2009):
# Numbered stars: 1 amine (or outer) side, 2 acyl side, 3 side chain; on linkers, the order of the positions; unused ones are H or OH. Bridge positions count the residues as written; N and C are the ends. Square brackets hold non-standard residues; d marks the D form. Peptide text beside a SMILES is read from it. ξ: configuration not given here. ξTrp(2-yl) = O=C(C(Cc1c([*:3])[nH]c2ccccc12)N[*:1])[*:2]; X1 = CC(O)(CO)CC(N[*:1])C(=O)[*:2]; ξAsp(3ξ-OH) = NC(C(=O)O)C(O)C(=O)O; Hyp = O=C(O)[CH]1C[CH](O)CN1
# Columns and labels:
# [1] = tested on: DU145 cells; assay: Immunoblot analysis of Triton-soluble and insoluble actin (actin polymerization); format: cell-based, human; settings: DU145 cells activated with testosterone-BSA
# Source text: There has been recognition that activation of mAR sites in LNCaP human prostate cancer cells results within minutes, in a significant rearrangement of the actin cytoskeleton, as indicated by the potent actin polymerization and microfilament reorganization (Kampa et al 2002). Using both, non-permeable testosterone analogs and specific inhibitors or antagonists of the intracellular androgen receptors (iAR), we provided strong evidence that in LNCaP cells this phenomenon was induced through the activation of the mARs. […] These quantitative results were fully supported by confocal laser scanning microscopic analysis of the actin cytoskeleton in testo-BSA treated DU145 cells. Indeed, a complete submembranous redistribution of the microfilamentous structures became evident within 10 minutes and persisted for at least 2 hours, as shown in FIGS. 3A-C.
# The Triton-soluble proteins were precipitated with equal amounts of 6% perchloric acid (PCA). The Triton-insoluble fractions were precipitated with 1 ml of 3% PCA. Equal volumes of each fraction were subjected to SDS electrophoresis and proteins were transferred to a nitrocellulose membrane, using the LKB electrophoresis apparatus (LKB, Bromma, Sweden). […] Blots were developed using the enhanced chemiluminescence system, and the band intensities were quantitated by PC-based image analysis (Image Analysis, Inc., Ontario, Canada).
# [2] = tested on: DU145 cells; assay: Quantitative measurement of apoptosis (APOPercentage Apoptosis Assay); format: cell-based, human; settings: for effect on testo-BSA induced apoptotic response: DU145 cells, signaling inhibitors; for effect on apoptotic response of DU145 cells treated with Testo-BSA: 10^-6 M, agents blocking actin reorganization
# Source text: In order to analyze a possible cross-talk between actin cytoskeleton reorganization and apoptosis upon mABS activation, we studied the apoptotic response of DU145 cells in the presence of specific agents blocking actin reorganization. […] The FACS analysis fully supported these observations. […] This assumption is in line with previously published data, showing that actin reorganization is an important signaling step, regulating NFkB translocation and transcriptional regulation of TNFα induced anti-apoptotic response (Papakonstanti and Stounaras, Mol Biol Cell, 2004).
# The APOPercentage Apoptosis Assay (Biocolor Ltd., Belfast, N. Ireland) was used to quantify apoptosis, according to manufacturer's instructions. This kit uses a dye that stains red the apoptotic cells undergoing the membrane “flip-flop” event when phosphatidylserine is translocated to the outer leaflet. Detection of apoptosis can be readily observed under inverted microscopy. For apoptosis quantitation, the amount of dye within the labeled cells can subsequently be released into solution and the concentration measured at a wavelength of 550 nm (reference filter 620 nm) using a color filter microplate […] (Dynatech MicroElisa reader Chantilly, Va.).
# [3] = tested on: RhoA; assay: RhoA activation after mAR activation; format: cell-based, human; settings: 10^-7 M, DU145 cells
# Source text: Looking for an alternative mechanism mediating the non-genomic testosterone signaling in DU145 cells we analyzed a possible rapid activation of Rho-GTPase's. Indeed, among the signaling effectors that regulate such processes of actin reorganization, the best understood are small GTPases of the Rho family. Classically, plasma membrane receptors activate specific guanine exchange factors (GEFs) often via phosphorylation, which leads to subsequent loading of Rho GTPases with GTP. Active Rho GTPases continue signal transmission towards Rho coiled-coiled kinase 1 (ROCK1) and/or p21-activated kinase 1 (Pak1). Activated […] phosphorylate and activate Lim-kinases 1 and 2 (Limk1 and Limk2) respectively. Limk1 and Limk2 are closely related proteins composed of two N-terminal Lim domains and a C-terminal kinase domain. The Lim domains are protein-binding motifs frequently found in cytosolic proteins that interact with the actin cytoskeleton. Eventually, Limk1 and Limk2 phosphorylate actin-depolymerizing proteins such as cofilin and actin-depolymerizing factor (ADF), which are inactivated and thus permit actin polymerization to occur. […] To further analyze the downstream effector of RhaA activation, DU145 cells, activated with testo-BSA were treated with the specific ROCK inhibitor Y27632 and actin redistribution was documented quantitatively using the G/Total-actin ratio.
# [4] = tested on: DU-145 cells; assay: Cell migration, adhesion and invasion after mAR activation; format: cell-based, human
# Source text: (§1) This contact induced significant actin remodelling followed by a decrease in cell migration, adhesion and invasion. […] Activation of the pathway induced signaling and actin reorganization. The pathway is not activated in LNCAP cells. […] This effect was not observed with the anti-androgen flutamide.
# [5] = tested on: LNCAP cells; assay: Induction of apoptosis in LNCaP cells; format: cell-based, human
# Source text: as §1
# [6] = tested on: LNCaP-inoculated nude mice; assay: In vivo tumor growth in LNCaP-inoculated nude mice; settings: 8 mg/kg weight for one month, compared to control animals
# [7] = tested on: FAK/PI-3K/Rac1 pathway; assay: FAK/PI-3K/Rac1 signaling after mAR activation; format: cell-based, human; settings: DU145 cells, FAK constitutively phosphorylated
# Source text: Indeed, as shown in FIGS. 5A-B, FAK was constitutively phosphorylated in DU145 cells. […] These findings imply the existence of an alternative non-genomic signaling cascade regulating the rapid actin reorganization shown in FIGS. 2A-B.
# [8] = tested on: prostate-specific antigen (PSA); settings: within minutes; cited from earlier work
molecule,measurement,setting,value
C[C@@H](N)[C@H]1CC[C@H](C(=O)Nc2ccncc2)CC1 [Y27632],effect on testosterone-induced rapid actin polymerization,[1],totally inhibited
same,effect on testo-BSA induced apoptotic response,[2],abrogating
COC[C@H]1OC(=O)c2coc3c2[C@@]1(C)C1=C(C3=O)[C@@H]2CCC(=O)[C@@]2(C)C[C@H]1OC(C)=O [wortmannin],effect on testosterone-induced rapid actin polymerization,[1],no effect
same,effect on testo-BSA induced apoptotic response,[2],no effect
testosterone 3-(O-carboxymethyl)oxime:BSA [testosterone-BSA],persistence of RhoA activation,[3],up to two hours
same,time of maximum RhoA activation,[3],30 min
same,time to activation of RhoA,[3],≤ 3 min
same,"cell migration, adhesion and invasion",[4],decrease
same,induction of apoptosis,[2],induced apoptosis
same,induction of apoptosis,[5],induced apoptosis
same,reduction of tumor-size,[6],60%
same,FAK phosphorylation,[7],neither apparent additional FAK phosphorylation could be documented
same,secretion of prostate-specific antigen (PSA),[8],increase
CC1NC(=O)C2CC(O)CN2C(=O)C2CSc3[nH]c4ccccc4c3CC(NC1=O)C(=O)NC(CC(C)(O)CO)C(=O)NC(C(C)C)C(=O)NC(C(O)C(=O)O)C(=O)N2 (stereo not drawn) [phallacidin] (cyclo([ξAsp(3ξ-OH)]C[Hyp]A[ξTrp(2-yl)][X1]V); thioether 2-5; configuration not given here),effect on apoptotic response of DU145 cells treated with Testo-BSA,[2],clear inhibition
C=C1[C@@H](C)[C@H]2[C@H](Cc3ccccc3)NC(=O)[C@]23OC(=O)/C=C/[C@H](O)CCC[C@@H](C)C/C=C/[C@H]3[C@@H]1O [cytochalasin B],effect on apoptotic response of DU145 cells treated with Testo-BSA,[2],clear inhibition
